Experimental data: US7820624B2, “Peptide ligands” (ICH Productions Limited, priority 2003, dated 2010)
“Also recorded” adds a separate entry of the source.

Assays:
[1] = tested on: human monocyte-derived immature dendritic cells; assay: Titration of phage clone binding to human dendritic cells; conditions: for Phage harvested by cell lysis (pfu), human donor S / Phage harvested by cell lysis (pfu), human donor one / Phage harvested by cell lysis (pfu), human donor two: 2×10^11 phage on 5×10^4 cells, 1 hour on ice; for Extent of phage clone binding in titrations: all titrations, including mouse dendritic cells, versus phage with no insert
Experimental: Phage were recovered and titred from each round of selection as follows. 2×10^11 Blocked phage were added to 5×10^4 blocked monocyte-derived immature dendritic cells for 1 hour on ice before washing cells three times with 0.05% Tween20-PBS, eluting phage with TBS pH5.5, and lysing cells to harvest the phage remaining bound. The numbers of phage harvested by cell lysis were calculated as plaque forming units (pfu). […] Sequencing of the bound phage shown in FIG. 1 identified the peptides as APSNSTA [SEQ. ID. NO.:15], QLLTGAS [SEQ. ID. NO.:30], TARDYRL [SEQ. ID. NO.:31], FQSQYQK [SEQ. ID. NO.:26], PLMPSLS [SEQ. ID. NO.:24], FPRAPHH [SEQ. ID. NO.:32], MASISMK [SEQ. ID. NO.:27], DWWHTSA [SEQ. ID. NO.:28], SHVKLNS [SEQ. ID. NO.:29], and SPALKTV [SEQ. ID. NO.:16].
(§1) The dendritic cells were spun down at 2000 rpm, for 5 min at 4° C., and resuspended in the phage solution, allowing the phage to bind for 1 hour on ice with occasional mixing. The cells were then washed in PBS-Tween 20 (0.05%) three times before eluting phage with 166 μl TBS pH5.5. for 10 min on ice. The eluate was neutralised with […] Tris-HCl pH 8, the cells were spun down, and the supernatant removed to be stored as eluate. The cell pellet was resuspended in 200 μl of cell lysis buffer (30 mM Tris-HCl, 1 mM EDTA pH 8.0) for 1 hour on ice, with shaking. The cell debris was removed by spinning at 5000 rpm for 5 min and the supernatant recovered. The phage in the eluate and the cell lysate were titred by measuring plaque forming units (pfu) in E. coli ER2738 as described in the NEB C7C technical bulletin.
(§2) The titration of phage clone binding was carried out using human and mouse dendritic cells, with binding to plastic as a control. The human cells were obtained from donors as stated below.

[2] = tested on: mouse dendritic cells; assay: Titration of phage clone binding to mouse dendritic cells; conditions: 2×10^11 phage
Experimental: as §1, §2

[3] = Titration of phage clone binding to blocked plastic (control)
Experimental: as §1, §2

[4] = tested on: human monocyte-derived immature dendritic cells; assay: Whole cell flow cytometry (FACS) of phage clone binding; conditions: day 4 cells, several donors; versus phage clone with no insert
Experimental: 5×10^4 Dendritic cells and 2×10^11 of an individual purified phage clone were each blocked at 4° C. for 30 mins in 1 ml MBSA (2% Marvel, 5% BSA in PBS), with mixing on a turntable. The dendritic cells were spun down at 2000 rpm, a gentle centrifugation to pellet cells without lysing them, for 5 min at 4° C., and the pellet resuspended in the blocked phage solution. The mixture was held on ice for 30 min to allow the phage to bind, before spinning down the cells, removing the supernatant and washing the cells with 1 ml 1% BSA, 0.05% Tween20-PBS. The cells were spun again, the supernatant removed, and the cells fixed in 1 ml 1% paraformaldehyde for 30 min on ice. […] The cells were incubated with the antibody on ice for 30 min before spinning down, washing twice in 0.05% Tween20, 1% BSA PBS, resuspending in […] and measuring the percentage cells positive for FITC by FACS analysis.
Alternatively, 5×10^4 dendritic cells were mixed with 2×10^11 of individual phage clones as described for panning of the phage library. The mixture of phage and DC suspensions was kept on ice for 30 min before cells were centrifuged to remove the supernatant and washed with 1 ml 1% BSA, 0.05% Tween 20-PBS. The cells were again pelleted by centrifugation, then fixed for flow cytometry analysis by resuspending in 1 ml of 1% paraformaldehyde for 30 min on ice. […] The cells were incubated with the antibody on ice for 30 min then pelleted by centrifugation, washed twice in 0.05% Tween 20, 1% BSA PBS and resuspended in 200 μl PBS. The percentage of FITC-positive cells was determined by flow cytometry using a Epics XL flow cytometer (Beckman Coulter, High Wycombe, UK.).

[5] = tested on: human monocyte-derived immature dendritic cells; assay: LID (lipid-peptide-DNA) transfection of immature dendritic cells, EGFP by FACS and 7AAD cell death; assay type: cell-based; design: Transfection efficiency, % EGFP positive cells: concentration or dose not given beside the values; conditions: for Transfection efficiency, % positive cells / Percentage of dendritic cells transfected: day 4 cells; for Percentage of dendritic cells transfected: LID with lipofectin (FIG. 4b)
Experimental: (§3) Lipopolyplex (LID) transfection complexes comprising lipid (L), peptide (in the form of a peptide derivative as described above) (I) and DNA (D) were prepared. The lipid component was Lipofectin or Lipofectamine 2000 (Invitrogen Ltd, Paisley, UK), the peptide component was a synthesized peptide A to F, 6 or 6J derivative, as described in Table 7 above, and the DNA was the plasmid pEGFP-N1 (Clontech, BD Biosciences, Palo Alto, Calif.)
In the transfection complex, peptide component to DNA charge ratios (+/−) were used at 1.5:1, 3:1 and 7:1. The lipid
(§4) component (Lipofectin or Lipofectamine 2000) was maintained at a constant proportion, by weight, relative to DNA of 0.75:1. Prior to making transfection complexes, in method A the lipid component was diluted to a concentration of 15 μg per ml, the peptide was prepared at 0.1 mg/ml and the DNA (plasmid pEGFP-N1, BD Biosciences, Cowley, UK, prepared using EndoFree plasmid kit, Qiagen Ltd, Crawley, UK) was at 10 μg per ml. All dilutions were performed with OptiMEM reduced serum tissue culture medium (Life Technologies Ltd, Paisley, UK). In method B prior to making transfection complexes the lipid component was diluted to a concentration of 30 μg per ml, the peptide was prepared at 0.1 mg/ml and the DNA (plasmid pEGFP-N1, BD Biosciences, Cowley, UK, prepared using EndoFree plasmid kit, Qiagen Ltd, Crawley, UK) was at […]. All dilutions were performed in serum-free RPMI.
(§5) Transfection complexes were made by mixing the components in the order 1) lipid (50 μl) then 2) peptide (70 μl) and finally 3) DNA (50 μl), then diluting with OptiMEM or serum free RPMI, as appropriate, to a concentration relative to the DNA component of 2 μg DNA per […] (OptiMEM) or 500 μl (RPMI).
Immature day 6 dendritic cells, obtained as described in Example 1(v) above, were plated into a 48 well plate at 5×10^4 cells per well in complete media and allowed to settle for 3 hours at 37° C. 300 μl or 500 μl (as appropriate) of the transfection complex obtained as described above was added to each well. The transfection complex was applied to cells within 5 minutes of preparation. Transfection incubations were performed at 37° C. for 4 hours, after which the medium was replaced with complete medium with cytokines for 24 hours. Cells were harvested by scraping, spun down and resuspended in 300 μl PBS for FACS analysis to determine the percentage of cells positive for the reporter gene EGFP (Enhanced Green Fluorescent Protein). Each transfection was performed in triplicate wells.
(§6) For transfection of monocytes, peripheral blood monocytes were prepared using Lymphoprep centrifugation and CD14 bead selection as described in the method for preparation of monocyte derived dendritic cells in Example 1(v) above. These cells were then transfected as described as described for dendritic cells except that transfection of the monocytes (and also of day 3 or day 4 immature dendritic cells) was carried out in solution.

[6] = tested on: human peripheral blood monocytes; assay: LID transfection of monocytes, EGFP by FACS and cell death; assay type: cell-based
Experimental: as §3, §4, §5, §6

[7] = lipofectin, lipid:DNA 0.75:1, peptide:DNA 7:1 (FIG. 5a)

Row | Substance | Phage harvested by cell lysis (pfu), human donor S [1] [pfu ×10^3] | Phage harvested by cell lysis (pfu), human donor one [1] [pfu ×10^3] | Phage titre (pfu), mouse DCs [2] [pfu ×10^3] | Phage titre (pfu), plastic [3] [pfu ×10^3] | Percentage of cells positive for bound phage (FITC) by FACS [4] | Phage harvested by cell lysis (pfu), human donor two [1] [pfu ×10^3] | Transfection efficiency, % EGFP positive cells ([5]; day 3 dendritic cells (FIG. 6a)) [%] | Transfection efficiency, % positive cells ([5]; Lipofectamine 2000) [%] | Transfection efficiency, % positive cells [5, 7] | Extent of phage clone binding in titrations [1] | Percentages of cells transfected (ranking) ([6]; FIG. 7a) | Percentage of dendritic cells transfected [5] | Cell death ([6]; FIG. 7b, peptide F value with Lipofectin) [%]
1 | SPALKTV (Synthetic peptide binding to dendritic cells) | 6960 | 120 | 600 | 220 | all clones except for one | – | – | – | – | – | – | – | –
2 | PMLPSLS (Synthetic peptide binding to dendritic cells) | 560 | 40 | 1520 | 80 | a higher percentage of cells positive for bound phage than the controls with no insert | 40 | – | – | – | – | – | – | –
3 | RRETAWA [peptide 6, reference compound] | – | – | – | – | – | – | 14 | 3 | 2% | – | – | – | –
4 | FPRAPHH (Synthetic peptide binding to dendritic cells) | 19400 | 15920 | 13980 | 1860 | a higher percentage of cells positive for bound phage than the controls with no insert | 3200 | – | – | 11% | bound in highest numbers in all titrations | highest percentages of cells transfected | – | –
5 | TARDYRL (Synthetic peptide binding to dendritic cells) | 940 | – | – | – | a higher percentage of cells positive for bound phage than the controls with no insert | 180 | – | – | – | – | – | – | –
6 | STPPNTT (Synthetic peptide binding to dendritic cells) | – | – | – | – | a higher percentage of cells positive for bound phage than the controls with no insert | – | – | – | – | – | – | – | –
7 | DWWHTSA (Synthetic peptide binding to dendritic cells) | 8020 | 2980 | 3240 | 1180 | binding to a higher percentage of cells than a phage clone bearing no insert; also recorded: bind to dendritic cells in highest amounts; also recorded: binding to dendritic cells in highest amounts | 1380 | – | – | – | – | – | less than 1% | 25
8 | SQKNPQM (Synthetic peptide binding to dendritic cells) | – | – | – | – | binding to a higher percentage of cells than a phage clone bearing no insert | – | – | – | – | – | – | – | –
9 | QLLTGAS (Synthetic peptide binding to dendritic cells) | 220 | 380 | 20 | 220 | a higher percentage of cells positive for bound phage than the controls with no insert; also recorded: binds to marginally more cells than the others | 960 | – | – | – | – | – | – | –
10 | FQSQYQK (Synthetic peptide binding to dendritic cells) | 3060 | 1000 | 3260 | 1680 | binding to a higher percentage of cells than a phage clone bearing no insert | 360 | – | – | – | – | – | – | –
11 | MASISMK (Synthetic peptide binding to dendritic cells) | 9440 | 15220 | 6380 | 2380 | a higher percentage of cells positive for bound phage than the controls with no insert | 7780 | – | – | about 7% | bound in highest numbers in all titrations | – | approximately half that value | –
